Patent US20020168417A1, “Agrochemical compositions and surfactant compounds” (priority 1999, published 2002)
Read-outs that look alike come from different tables or passages of the source.

What was measured:
[1] = test system: fungal leaf rust (Puccinia recondite); assay: AE5 field trial, tebuconazole fungicide with adjuvant on winter wheat leaf rust; format: in vivo; details: infected leaf area
Method: Field trials were carried out to test the effectiveness of fungicide on winter wheat (variety Versailles) using the active Horizon EW (tebuconazole) (250 g.I^−1) in the control of fungal leaf rust (Puccinia recondite). The plots were sprayed at a spray volume 300 I.ha^−1, with the adjuvants added as tank mix additives at a concentration of 0.1% weightivolume on the spray. The normal application rate (NAR) for Horizon alone is 1 I.ha^−1 (250 g.ha^−1) and this was used as a control together with 0.75 I.ha^−1 (187.5 g.ha^−1; […]). An untreated control was also included. For these trials, adjuvant containing formulations were at ¾ NAR for the active and 0.1% weight/volume (300 g.ha^−1) adjuvant The effect of the spraying was assessed 3 weeks after treatment and is expressed as % infected leaf area (2 and 3 top leaves).

[2] = in vivo
Method: (§1) The irritancy of the products of some of the synthesis examples (if necessary after purification) was tested using standard testing protocols.

[3] = in vivo; remark: listed apart in the source
Method: as §1

[4] = test system: Daphnia magna; assay: aquatic toxicity to Daphnia magna, standard bio-assay; format: in vivo; details: end of the 48 hour assay procedure
From the text: The results are given below:

[5] = irritancy, standard testing protocols: eye; details: in vivo
Method: as §1

[6] = irritancy, standard testing protocols: skin; details: in vivo
Method: as §1

[7] = tebuconazole 187.5 g · ha^−1, adjuvant (where used) 300 g · ha^−1, 3 weeks after treatment
[8] = tebuconazole 250 g · ha^−1, adjuvant (where used) 300 g · ha^−1, 3 weeks after treatment

With `CC(C)(C)C(O)(CCc1ccc(Cl)cc1)Cn1cncn1` (racemic) [tebuconazole, (RS)1-p-chlorophenyl4,4-dimethyl-3-(1H-1,2,4triazole-1-ylmethyl)-pentan-3ol] the “% infected 2 leaf” value [1, 7] was 2.5%, the “% infected 3 leaf” value [1, 7] was 10% and the “% infected 2 leaf” value [1, 8] was 2.5%. For the same molecule, the “% infected 3 leaf” value [1, 8] was 2.5%.

For “1-(N,N-bis(N-1-deoxyglucitylamino)amonium)-2-hydroxy-3-dodecyloxy Propane Sulphate [SE25]”, the “Irritation assessment Skin” value [2] was “slight” and the “Irritation assessment Eye” value [3] was “moderate”.

With “1-(N-1-deoxyglucitylamino)2-hydroxyl-3-(branched octadecyloxy poly-10PO-10EO) propane [SE21]” the “EC50 for immobilising the Daphnia” value [4] was 31.4 mg.I^−1, the “Irritation assessment Skin” value [2] was “slight/moderate” and the “Irritation assessment Eye” value [3] was “practically none/slight”.

For “Betaine from 1-(N-1-deoxyglucitylamino)-2-hydroxy-3-dodecyloxy Propane [SE23]”, the “Irritation assessment Eye” value [5] was “moderate” and the “Irritation assessment Skin” value [6] was “slight”.

For `CCCCCCCCCCCCCCOCC(O)CN(CC(O)C(O)C(O)C(O)CO)CC(O)C(O)C(O)C(O)CO` (centres unmarked) [SE20, 1-(N-bis-sorbitylamino)2-hydroxyl-3-tetradecyloxy propane], the “EC50 for immobilising the Daphnia” value [4] was >100 mg.I^−1.

For `CCCCCCCCCCOCC(O)CN(C)C[C@H](O)[C@@H](O)[C@H](O)[C@H](O)CO` (some centres unmarked) [SE10, 1-(N-methyl-N-1-deoxyglucitylamino)2-hydroxy-3-decyloxy propane], the “Irritation assessment Skin” value [2] was “practically none” and the “Irritation assessment Eye” value [3] was “moderate/severe”.
